Results on 1 compound are retold here after patent US5874457A, “Imidazolylalkyl derivatives of imidazo[1,5-a]indol-3-one” (Pharmacia & Upjohn S.p.A., priority 1994, dated 1999).

Assay [1] addresses T1, 5-HT3 (Rattus norvegicus, UniProt P35563).
T1 sequence (P35563 24-483): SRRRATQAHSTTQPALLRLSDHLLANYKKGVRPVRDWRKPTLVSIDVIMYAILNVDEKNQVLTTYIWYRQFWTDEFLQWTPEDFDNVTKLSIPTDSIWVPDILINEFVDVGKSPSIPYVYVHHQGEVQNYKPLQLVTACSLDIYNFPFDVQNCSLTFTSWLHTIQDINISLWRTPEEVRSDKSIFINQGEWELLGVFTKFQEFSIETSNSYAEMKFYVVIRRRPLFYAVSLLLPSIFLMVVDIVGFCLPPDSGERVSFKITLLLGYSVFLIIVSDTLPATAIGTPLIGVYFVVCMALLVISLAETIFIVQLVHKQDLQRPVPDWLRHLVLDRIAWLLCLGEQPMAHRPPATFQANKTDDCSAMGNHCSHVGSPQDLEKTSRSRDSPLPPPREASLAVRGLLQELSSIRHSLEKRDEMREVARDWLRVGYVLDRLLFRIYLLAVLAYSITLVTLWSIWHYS
The experiment in a line: Inhibition of the binding of ^3 H-BRL 43694 (5-HT3 binding affinity, rat entorhinal cortex). Also on record: from tissue; host or cells: rat entorhinal cortex (brain cortical membranes). From the text: The following Table II summarized the data obtained in this in-vitro test for the representative compound of the invention coded as FCE 28572.
5-HT3 binding affinity for rat entorhinal

Assay [2] deals with T1, 5-HT3. The experiment in a line: Inhibition of the von Bezold-Jarisch chemoreflex evoked by 5-HT in the anesthetized rat (5HT3 antagonist activity in vivo). To be noted: 5-HT 30 μg/kg i.v. Also on record: evoked by 5-HT in the anesthetized rat; from tissue; host or cells: living anesthetized rat (in vivo; native receptors, by own knowledge on cardiac vagal afferents). Here is the method: Pharmacol. 326, 36-44 (1984).
The following Table I reports in-vivo 5HT3 antagonist activity data obtained in this test for the representative compound of the invention 2-(5-methyl-1H-imidazol-4-yl)methyl-1,2-dihydro-imidazo[1,5-a]indol-3-one (internal code […]).
elicited by 5-HT (30 μg/kg i.v.) by FCE 28572
in the anesthetized rat. Values are mean ± in […]

As usually defined, the IC50 is the concentration that gives 50% inhibition. Low values mean inhibition by little substance, high ones a need for much substance. In general, ED50 refers to the dose that gives a 50% effect, or the effect in half of the subjects. On to `Cc1[nH]cnc1CN1Cc2cc3ccccc3n2C1=O` [FCE 28572, 2-(5-methyl-1H-imidazol-4-yl)methyl-1,2-dihydro-imidazo[1,5-a]indol-3-one], for which the IC50 in assay [1] stood at 23 nM. In addition, the “% inhibition of the von Bezold-Jarisch reflex elicited by 5-HT” value in assay [2] (compound 100 μg/kg i.v., mean ± S.E.M. from 6 animals) was 86.7%. The ED50 in assay [2] (iv, limits (10.4-31.7), read-out: ED50 (limits), inhibition of the von Bezold-Jarisch reflex elicited by 5-HT) was determined as 0.0161 mg/kg.
